The results in this text go back to US20240383915A1, “OXAZEPINE COMPOUNDS AND USES THEREOF IN THE TREATMENT OF CANCER” (Genentech, Inc., priority 2021, published 2024).

Assay [1] relates to SW480 cells. As to the kind of experiment: SW480 proliferation assay. In kind it is cell-based. The following applies: Homo sapiens, SW480, SW480; read-out: SW480 Prolif IC50 (G12V).
Assay [2] has as its target KRas(G12V) (Homo sapiens (Human), UniProt P01116, G12V). As to the kind of experiment: KRas(G12V) GDP HTRF (BODIPY-GDP exchange TR-FRET). Format: biochemical.
Assay [3] concerns PC-9 cells. As to the kind of experiment: PC9 proliferation assay. In kind it is cell-based, human. The following applies: Homo sapiens, PC-9, PC9; read-out: PC9 Prolif IC50 (G12V).
Assay [4] concerns the target KRas (Homo sapiens (Human), UniProt P01116). As to the kind of experiment: KRas GDP HTRF (BODIPY-GDP exchange TR-FRET). Format: biochemical. In outline:
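Inhibition of SOS1-mediated exchange of BODIPY-GDP on KRAS G12D, started with 3 nM recombinant human SOS1 and 300 nM BODIPY-GDP and read after 60 min. TR-FRET excitation 337 nm, ratio 520/490 nm ×10,000. IC50 from 4-parameter Hill fit of normalized data.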
(In general: In TR-FRET formats the signal depends on donor and acceptor labels being close together.)

KRas, sequence (P01116-2 other isoform, or with tags, fused parts or gaps): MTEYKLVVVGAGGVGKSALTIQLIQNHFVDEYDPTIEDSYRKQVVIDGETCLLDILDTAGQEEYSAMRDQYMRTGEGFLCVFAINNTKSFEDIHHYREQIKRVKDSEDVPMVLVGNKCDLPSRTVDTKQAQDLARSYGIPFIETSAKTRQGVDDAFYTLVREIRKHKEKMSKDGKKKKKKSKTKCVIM
KRas(G12V), sequence (P01116-2 other isoform, or with tags, fused parts or gaps G12V): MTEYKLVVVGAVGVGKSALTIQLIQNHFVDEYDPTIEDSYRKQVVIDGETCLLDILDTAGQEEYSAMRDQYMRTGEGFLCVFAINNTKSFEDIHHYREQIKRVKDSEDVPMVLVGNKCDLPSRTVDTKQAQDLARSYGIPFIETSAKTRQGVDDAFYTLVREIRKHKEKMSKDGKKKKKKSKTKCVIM

For `Cc1cc(N)nc(-c2c(Cl)c3c4c(nc(OC[C@@]56CCCN5C[C@H](F)C6)nc4c2F)N([C@H](C)c2nccnc2N)CCO3)c1C(F)(F)F` (atropisomer, axis not shown; (aS)) [Example 101, 3-((R)-1-((R)-9-(6-amino-4-methyl-3-(trifluoromethyl)pyridin-2-yl)-8-chloro-10-fluoro-2-(((2R,7aS)-2-fluorotetrahydro-1H-pyrrolizin-7a(5H)-yl)methoxy)-5,6-dihydro-4H-[1,4]oxazepino[5,6,7-de]quinazolin-4-yl)ethyl)pyrazin-2-amine], the IC50 – broadly, the concentration that inhibits the measured activity by half – in assay [1] came out at 5.7 nM; in assay [2] it was 0.06 nM; in assay [3], 830 nM; in assay [4], 0.0616 nM.
The like results for `Cc1cc(N)nc(-c2cc3ncnc4c3c(c2Cl)OCCN4CCn2ccccc2=O)c1C(F)(F)F` [Example 51, 1-(2-(9-(6-amino-4-methyl-3-(trifluoromethyl)pyridin-2-yl)-8-chloro-5,6-dihydro-[1,4]oxazepino[5,6,7-de]quinazolin-4-yl)ethyl)pyridin-2(1H)-one] were, in that order, 20000 nM, 9500 nM, 20000 nM and 12000 nM.
With `Cc1cc(N)nc(-c2c(Cl)c3c4c(nc(OCC5COCCN5C)nc4c2F)N([C@H](C)c2cccnc2N)CCO3)c1C(F)(F)F` (stereo partly drawn) [Example 140, 6-((9R)-4-((R)-1-(2-aminopyridin-3-yl)ethyl)-8-chloro-10-fluoro-2-((4-methylmorpholin-3-yl)methoxy)-5,6-dihydro-4H-[1,4]oxazepino[5,6,7-de]quinazolin-9-yl)-4-methyl-5-(trifluoromethyl)pyridin-2-amine], the half-maximal inhibitory concentration (IC50) in assay [1] was 51 nM; in assay [2], 0.17 nM; in assay [3], 3800 nM; in assay [4] it was 0.6 nM.
The like results for `CN1CCOc2c(Cl)c(-c3cccc4sc(N)nc34)cc3nc(OC[C@@]45CCCN4C[C@H](F)C5)nc1c23` [Example 23, 4-(8-chloro-2-(((2R,7aS)-2-fluorotetrahydro-1H-pyrrolizin-7a(5H)-yl)methoxy)-4-methyl-5,6-dihydro-4H-[1,4]oxazepino[5,6,7-de]quinazolin-9-yl)benzo[d]thiazol-2-amine] were, in that order, 5100 nM, 5.1 nM, 10000 nM and 29 nM.
The like results for `Cc1cc(N)nc(-c2c(Br)c3c4c(nc(OC[C@@]56CCCN5C[C@H](F)C6)nc4c2F)N([C@H](C)c2cccnc2N)CCO3)c1C(F)(F)F` (atropisomer, axis not shown; (aS)) [Example 88, (R)-6-(4-((R)-1-(2-aminopyridin-3-yl)ethyl)-8-bromo-10-fluoro-2-(((2R,7aS)-2-fluorotetrahydro-1H-pyrrolizin-7a(5H)-yl)methoxy)-5,6-dihydro-4H-[1,4]oxazepino[5,6,7-de]quinazolin-9-yl)-4-methyl-5-(trifluoromethyl)pyridin-2-amine] were, in that order, 1.5 nM, 0.05 nM, 3000 nM and 0.12 nM.
For the molecule `Cc1cc(N)nc(-c2c(Cl)c3c4c(nc(OC[C@@H]5C[C@@H]6C[N@@]5CCO6)nc4c2F)N([C@H](C)c2cccnc2N)CCO3)c1C(F)(F)F` (atropisomer, axis not shown) [Example 92a, 6-((R)-2-(((1R,5R,7S)-4-oxa-1-azabicyclo[3.2.1]octan-7-yl)methoxy)-4-((R)-1-(2-aminopyridin-3-yl)ethyl)-8-chloro-10-fluoro-5,6-dihydro-4H-[1,4]oxazepino[5,6,7-de]quinazolin-9-yl)-4-methyl-5-(trifluoromethyl)pyridin-2-amine], the IC50 in assay [1] is 37 nM; in assay [2] it was 0.07 nM; in assay [3], 1800 nM; in assay [4] it was 0.0648 nM.
Regarding `Cc1cc(N)nc(-c2c(Cl)c3c4c(nc(OC[C@H]5CC[C@@H]6COC(F)(F)CN56)nc4c2F)N([C@H](C)c2cccnc2N)CCO3)c1C(F)(F)F` (atropisomer, axis not shown; (aR)) [Example 91b, 6-((R)-4-((R)-1-(2-aminopyridin-3-yl)ethyl)-8-chloro-2-(((6R,8aR)-3,3-difluorohexahydro-1H-pyrrolo[2,1-c][1,4]oxazin-6-yl)methoxy)-10-fluoro-5,6-dihydro-4H-[1,4]oxazepino[5,6,7-de]quinazolin-9-yl)-4-methyl-5-(trifluoromethyl)pyridin-2-amine], the IC50 came out at 140 nM in assay [1], 0.81 nM in assay [2], 6400 nM in assay [3] and 2.2 nM in assay [4].
For `Cc1cc(N)nc(-c2cc3nc(OC[C@@]45CCCN4C[C@H](F)C5)nc4c3c(c2Cl)OCCN4Cc2cn[nH]c2)c1C(F)(F)F` [Example 2, 6-(4-((1H-pyrazol-4-yl)methyl)-8-chloro-2-(((2R,7aS)-2-fluorotetrahydro-1H-pyrrolizin-7a(5H)-yl)methoxy)-5,6-dihydro-4H-[1,4]oxazepino[5,6,7-de]quinazolin-9-yl)-4-methyl-5-(trifluoromethyl)pyridin-2-amine], the concentration for half-maximal inhibition (IC50) in assay [1] came out at 11000 nM; in assay [2] it was 11 nM; in assay [3], 7700 nM; in assay [4], 25 nM.
The like results for `Cc1cc(N)nc(-c2c(Cl)c3c4c(nc(OC[C@H]5CC[C@@H]6COCCN65)nc4c2F)N([C@H](C)c2cccnc2N)CCO3)c1C(F)(F)F` (atropisomer, axis not shown; (aR)) [Example 87b, 6-((R)-4-((R)-1-(2-aminopyridin-3-yl)ethyl)-8-chloro-10-fluoro-2-(((6R,8aR)-hexahydro-1H-pyrrolo[2,1-c][1,4]oxazin-6-yl)methoxy)-5,6-dihydro-4H-[1,4]oxazepino[5,6,7-de]quinazolin-9-yl)-4-methyl-5-(trifluoromethyl)pyridin-2-amine] were, in that order, 28 nM, 0.089 nM, 3100 nM and 0.18 nM.
In the case of `Nc1ncccc1CN1CCOc2c(Cl)c(-c3cccc(CO)c3)cc3nc(OC[C@@]45CCCN4C[C@H](F)C5)nc1c23` [Example 64, (3-(4-((2-aminopyridin-3-yl)methyl)-8-chloro-2-(((2R,7aS)-2-fluorotetrahydro-1H-pyrrolizin-7a(5H)-yl)methoxy)-5,6-dihydro-4H-[1,4]oxazepino[5,6,7-de]quinazolin-9-yl)phenyl)methanol], the IC50 was 17000 nM in assay [1], 290 nM in assay [2], 5400 nM in assay [3] and 2700 nM in assay [4].
For `Cc1c(F)c(N)nc(-c2c(Cl)c3c4c(nc(OC[C@@]56CCCN5C[C@H](F)C6)nc4c2F)N([C@H](C)c2cccnc2N)CCO3)c1C(F)(F)F` (atropisomer, axis not shown; (aS)) [Example 75a, 6-((R)-4-((R)-1-(2-aminopyridin-3-yl)ethyl)-8-chloro-10-fluoro-2-(((2R,7aS)-2-fluorotetrahydro-1H-pyrrolizin-7a(5H)-yl)methoxy)-5,6-dihydro-4H-[1,4]oxazepino[5,6,7-de]quinazolin-9-yl)-3-fluoro-4-methyl-5-(trifluoromethyl)pyridin-2-amine], the IC50 in assay [1] was 1.1 nM; in assay [2], 0.05 nM; in assay [3], 890 nM; in assay [4], 0.066 nM.
For the molecule `Cc1cc(N)nc(-c2cc3nc(OC[C@@]45CCCN4C[C@H](F)C5)nc4c3c(c2Cl)OCCN4Cc2ccn[nH]2)c1C(F)(F)F` [Example 1, 6-(4-((1H-pyrazol-5-yl)methyl)-8-chloro-2-(((2R,7aS)-2-fluorotetrahydro-1H-pyrrolizin-7a(5H)-yl)methoxy)-5,6-dihydro-4H-[1,4]oxazepino[5,6,7-de]quinazolin-9-yl)-4-methyl-5-(trifluoromethyl)pyridin-2-amine], the half-maximal inhibitory concentration (IC50) in assay [1] stood at 12000 nM; in assay [2] it was 9 nM; in assay [3], 18000 nM; in assay [4] it was 46 nM.
With `Cc1cc(N)nc(-c2c(Cl)c3c4c(nc(OC[C@H]5CC[C@@H]6COCCCN65)nc4c2F)N([C@H](C)c2cccnc2N)CCO3)c1C(F)(F)F` (atropisomer, axis not shown; (aR)) [Example 120b, 6-((R)-4-((R)-1-(2-aminopyridin-3-yl)ethyl)-8-chloro-10-fluoro-2-(((7R,9aR)-hexahydro-1H,3H-pyrrolo[2,1-c][1,4]oxazepin-7-yl)methoxy)-5,6-dihydro-4H-[1,4]oxazepino[5,6,7-de]quinazolin-9-yl)-4-methyl-5-(trifluoromethyl)pyridin-2-amine], the IC50 is 20 nM in assay [1], 0.08 nM in assay [2], 3000 nM in assay [3] and 0.2 nM in assay [4].
`Cc1cc(N)c(F)c(-c2c(Cl)c3c4c(nc(OC[C@@]56CCCN5C[C@H](F)C6)nc4c2F)N([C@H](C)c2cccnc2N)CCO3)c1I` (single isomer, unassigned) [Example 74a]: the IC50 came to 6 nM in assay [1], 0.09 nM in assay [2], 2900 nM in assay [3] and 0.21 nM in assay [4].
The corresponding values for `Cc1cc(N)nc(-c2c(Cl)c3c4c(nc(OC[C@@]56CCCN5C[C@H](F)C6)nc4c2F)N([C@H](C)c2cncc(N)c2)CCO3)c1C(F)(F)F` (atropisomer, axis not shown; (aS)) [Example 45, (R)-6-(4-((S)-1-(5-aminopyridin-3-yl)ethyl)-8-chloro-10-fluoro-2-(((2R,7aS)-2-fluorotetrahydro-1H-pyrrolizin-7a(5H)-yl)methoxy)-5,6-dihydro-4H-[1,4]oxazepino[5,6,7-de]quinazolin-9-yl)-4-methyl-5-(trifluoromethyl)pyridin-2-amine] are 50 nM, 0.23 nM, 6000 nM and 0.27 nM.
